Bounds are passed on as bounds.

On to `COc1cc(N2CCN(C[C@@H](O)CO)CC2)ccc1Nc1ncc2ccc(-c3ccccc3OC)n2n1`, for which the melting point (commonly the temperature, or range, at which the solid turns liquid) is 83 to 90 °C. The compound `CSC1C(=O)Nc2ccc(Oc3ccccc3Cl)cc21` (stereo not given) showed a melting point of 120 to 123 °C. The figure for `COCN1C(C)=C(C(=O)O)C(c2ccccc2C(F)(F)F)C(C(=O)OCOC(=O)C(C)(C)C)=C1C` (single isomer, unassigned; (+)) is 69 to 70 °C; for `Nc1cnc2cc3c(cc2c1-c1ccccc1Cl)CCC3` it is 179 to 180 °C; for `COc1ccc(-c2ccc(Br)cc2N)cc1` it is 128 to 130 °C. The figure for `O=C(O)c1ncn2c1CN=C(c1ccccc1)c1cc(Br)ccc1-2` is greater than 250 °C; for `COc1ccc2c(c1)Sc1c(ccc(OC)c1C=O)N2C` it is 150 °C; for `Cc1ccccc1C(O)C1CCN(C)CC1` (stereo not given) it is 119 to 123 °C. Compound `CCCCCCCCCCCC[C@]1(O)C(=O)O[C@H](C(=O)OC)[C@@]1(O)C(=O)OC` (racemic) gave a melting point of 74 to 76 °C.

`O=C(CCCN1CCCCC1)c1ccc2oc3ccc(C(=O)CCCN4CCCCC4)cc3c2c1` returned a melting point of 70 to 71 °C.

Compound `CCNc1cccc(NC(=O)COC)c1C#N` displayed a melting point of 118 to 119 °C.

On to `O=C(NCc1ccccc1)Nc1ccc(CN2C(=O)[C@H]3CCC[C@H]3N(C(=O)CN3C(=O)c4ccccc4C3=O)c3ccccc32)cc1` (relative stereo), for which the melting point was in the range of 169 to 171 °C. On to `CC(C)(C)C(=O)Nc1ccncc1`, for which the melting point fell in the range of 137 to 140 °C. In the case of `CNC(=O)c1ccccc1N=C(NC(=O)c1ccccc1)SC`, the melting point was 193 to 195 °C. Next, `CN1CCN(C2=Nc3ccccc3-n3ccc4cc(Br)cc2c43)CC1`: 157 to 159 °C; `COc1ccc2nc3[nH]c(=O)[nH]c3cc2c1`: greater than 360 °C.

`COC(=O)c1cc2c(c(OC)c1Br)OCO2`: the melting point lay within 85.5 to 86 °C.

Take `COc1cc2ncnc(N3CCN(C(=S)NC4CCOC4=O)CC3)c2cc1OC` (stereo not given): the melting point lay within 147 to 148 °C. In the case of `Cc1cc(SCc2sc(-c3ccc(Cl)cc3)nc2C)ccc1OCC(=O)O`, the melting point came out at 109 °C.

Turning to `O=C(NCCc1cccs1)C12CC3CC(CC(O)(C3)C1)C2`, the melting point lay in the range of 118 to 119 °C. `Cc1ccnc2c1C(O)c1ccccc1-2` (stereo not given) returned a melting point of 154 to 156 °C. Consider `COc1cc(C)c(C(=O)c2c(OC)ncc(Br)c2Cl)c(OC)c1OC`, for which the melting point fell in the range of 84 to 87 °C. The figure for `CC(C)COC(=O)CC1CC(c2ccc(C#N)cc2)=NO1` (single isomer, unassigned; (-)) is 98 to 100 °C.

`O=c1ccn(CCO)c(C(O)c2ccc(Cl)cc2)c1O` (stereo not given) yielded a melting point of 184 to 186 °C. `Cn1c(S(=O)(=O)C(F)(F)C(F)F)nc(-c2ccc(F)cc2)c1-c1ccc(F)cc1` came in with a melting point of 122 to 124 °C. `CNC(=O)NCCN1CCC(=C2c3sccc3CCn3ccnc32)CC1`: the melting point turned out to be 159 °C. Next, `Nc1cccc(C23CC2C(=O)NC3=O)c1` (stereo not given): 135 to 137 °C; `CCn1cc(C(=O)O)c(=O)c2cc(F)c(N3Cc4ccc(C(=O)OC)cc4C3)c(F)c21`: 264 to 267 °C.

The compound `CNC(=O)c1ccc(Cl)nc1` came in with a melting point of 150 to 154 °C.

Compound `Cc1nn(C)c2nc(N(CC3CCC3)CC3CC3)c(CN(Cc3cc(C(F)(F)F)cc(C(F)(F)F)c3)c3nnn(C)n3)cc12` registered a melting point of 84 to 85 °C. With `C=C(C)Cc1c(O)c2c(c3c1CC(C)(C)N=C3c1ccccc1)CC(C)(C)O2`, the melting point fell in the range of 196 to 198 °C.

In turn, `Nc1ccc(S(=O)(=O)C[N+](=O)[O-])cc1` had a melting point of 132 to 133 °C. In the case of `CC1COc2c(F)c(F)c(N)c3c(=O)[nH]c(=O)n1c23` (stereo not given), the melting point is greater than 280 °C. Take `Cc1cc(Br)ccc1-n1ccc(O)n1`: the melting point was in the range of 208 to 210 °C. The compound `O=C(CC(Cc1ccccc1)C(=O)O)c1cccc(Cl)c1` (stereo not given) displayed a melting point of 85 to 89 °C. Turning to `C1=C(CCc2ccccc2)CCN(Cc2nc3ccccc3[nH]2)C1`, the melting point fell in the range of 177 to 179 °C. For `ClCCCOc1ccc(OCCCCl)c(Cl)c1`, the melting point was determined as 135 °C. In turn, `CNc1nc(-c2ccc(F)cc2)c(-c2ccc(S(C)(=O)=O)cc2)s1` returned a melting point of 243 to 244 °C.

`C[C@@H]1Cc2cc3c(cc2C(c2ccc(N)cc2)=NN1c1ccccc1)OCO3` came in with a melting point of 118 to 119 °C. Regarding `COC(=O)[C@@H]1C[C@@H](OS(C)(=O)=O)CN1C(=O)C1(C)CC1`, the melting point is 102 to 103 °C. For the compound `COc1ccc(C(=O)Nc2ccccc2)cc1NC(=S)Nc1ccc([N+](=O)[O-])cc1`, the melting point lay within 183 to 184 °C.

As to `CCc1cn(C2CC(O)C(CNC(=O)Cc3ccccc3NC(C)=O)O2)c(=O)[nH]c1=O` (stereo not given), the melting point is 266 to 267 °C.

`CCCCn1nc(C)c(CO)c1Cc1ccc(-c2ccccc2-c2nnn[nH]2)cc1` came in with a melting point of 120 to 126 °C. `CCS(=O)(=O)c1ccc(C(=O)O)c(Cl)c1O` displayed a melting point of 188 to 192 °C.

Turning to `Cc1cc(=O)oc2nn(Cc3cccc(Cl)c3)c(C)c12`, the melting point is 148 to 149 °C. For the compound `COc1cc2nc(N3CCN(C(=O)C=Cc4ccccn4)CC3)nc(N)c2cc1OC`, the melting point is 235 to 237 °C. The compound `CCCCCN(C[C@H]1CCC[C@H](CN(CCCCC)C(=O)Nc2ccc(N(C)C)cc2)C1)C(=O)Nc1ccc(N(C)C)cc1` (relative stereo) registered a melting point of 124 to 127 °C. Next, `CC(=O)OC1CSC(Oc2cnccc2C(F)(F)F)C(OC(C)=O)C1OC(C)=O` (stereo not given): 198 °C; `Cc1cc2c(c(C)c1S(=O)(=O)C[N+](=O)[O-])CCC(C)(C)O2`: 110 to 111 °C; `COc1cc2c(cc1OC)CC(N)CC2` (stereo not given): 83 to 86 °C. `Cc1ccc2[nH]c(=O)c(=O)[nH]c2c1CN(C)Cc1ccccc1`: the melting point was in the range of 205 to 206 °C.

In turn, `O=C(O)COCC(=O)NC12CC3CC(CC(C3)C1)C2` came in with a melting point of 181 to 183 °C. Compound `Brc1ccc(-c2nc(COc3ccc(CCCn4ccnc4)cc3)co2)o1` came in with a melting point of 115 to 116 °C. As to `CCCCC(=O)Nc1c(C(=O)OC)cc(Cl)cc1[N+](=O)[O-]`, the melting point was 84 to 85 °C. Next, `S=C1CSc2cc(Cl)ccc2N1`: 202 to 204 °C; `CSc1c(C(=O)NN=Cc2nccs2)[nH]c2ccccc12`: 216 to 222 °C; `CCCCCCc1cnc(-c2ccc(CCCCC)c(F)c2)nc1`: 30 °C. With `O=C(O)c1ccccc1Sc1cccc(OCc2ccc3ccccc3n2)c1`, the melting point was 169 to 171 °C. Next, `COc1ccc(Cl)cc1C(=O)NC1COc2cc(C)ccc2C1O` (stereo not given): 151 to 152 °C. In turn, `ON=CC1=NCCCS1` registered a melting point of 114 to 115 °C. Consider `CCN(CC)CCCOc1ccc(C(=O)c2oc3ccccc3c2-c2ccccc2)cc1`, for which the melting point lay within 122 to 126 °C. With `CCCc1c(OCCCOc2ccc(C(C)=O)c(OCCCC(=O)OCC)c2CCC)ccc(C(C)=O)c1O`, the melting point was 77 to 79 °C.

For `Cn1ncnc1COc1nn2c(-c3ccc(F)cc3F)nncc2c1-c1ccccc1F`, the melting point lay in the range of 164 to 166 °C.

The compound `CC(=O)Nc1nc(CCc2ccc(N)cc2)cs1` came in with a melting point of 102 to 104 °C. In turn, `OCCNc1nc2ccccc2o1` displayed a melting point of 162 to 164 °C.

Turning to `Cc1cc(-c2nc3ccc(F)cc3s2)ccc1N`, the melting point is 203 to 205 °C. `Nc1ccccc1NC(=O)c1ccc(C(=O)Nc2cccc(Nc3nc(-c4cccnc4)cs3)c2)s1` had a melting point of 222 °C. The figure for `O=C(O)c1c[nH]c(=S)n1C1Cc2cc(F)c(F)cc2C1` is 233 to 234 °C.

For `CC1CCCN(CCNc2ccnc3cc(Cl)ccc23)C1` (racemic), the melting point lay within 148 to 151 °C. Consider `CC(=O)C12OC1CC1C3CC=C4CC(O)CCC4(C)C3CCC12C` (stereo not given), for which the melting point fell in the range of 194 to 196 °C.

Turning to `CC(=O)c1cc(C#N)c(=O)n(C=CN(C)C)c1`, the melting point lay within 267 to 270 °C. Next, `CC(C)CC(NC(=O)OC(C)(C)C)C(=O)NCCC(=O)O` (stereo not given): 91 to 92 °C; `CC(C(N)=S)(c1ccccc1)c1ccccc1`: 150 to 152 °C. As to `CC(=O)Nc1cc2c(cc1[N+](=O)[O-])OC(C)(C)[C@@H](O)[C@@H]2NC(C)=O` (relative stereo), the melting point lay within 244 to 246 °C. Take `COc1ccc(C(=O)Nc2ccc3ccc(Cl)nc3n2)cc1`: the melting point was determined as 208 °C.

For the compound `O=C1N(Cc2ccc(Cl)s2)c2c(C(F)(F)F)cccc2C12COc1cc3c(cc12)OCO3` (stereo not given), the melting point fell in the range of 165 to 166 °C. With `C#CCOc1cccc(NC(=O)c2ccccc2C)c1`, the melting point is 93 to 95 °C. The compound `Oc1cc(Cl)c(-c2nnn[nH]2)cc1Oc1ccc(Cl)cc1Cl` displayed a melting point of 174 to 180 °C. Take `CC(C)(C)NCCOc1ccccc1CCCc1cccc2[nH]ccc12`: the melting point was 114 °C. In turn, `CCOC(=O)N(CC(=O)O)C(=O)c1c(F)ccc2c(C(F)(F)F)c(OC)ccc12` showed a melting point of 136 to 138 °C. `Fc1cccc2c1OC(CN1CC=C(c3c[nH]c4ccccc34)CC1)CO2` (stereo not given) showed a melting point of 174 to 177 °C. `C[C@@H](Oc1cncc(C(=O)Nc2ccc(C#N)cc2)c1)c1ccc(F)cc1` displayed a melting point of 151 to 152 °C. In the case of `CC(C)C(=O)c1cn(Cc2c(F)cccc2F)c2sc(-c3ccc(NC(=O)C(C)CO)cc3)c(CN(C)Cc3ccccc3)c2c1=O` (stereo not given), the melting point lay within 161 to 162 °C. Compound `C=C(C)C(=O)OCCNC(=O)Nc1ccc(C(=O)O)c(O)c1` yielded a melting point of 208 to 210 °C. Next, `OCc1cc2cc(-c3ccc4ccc(Cl)cc4n3)ccc2o1`: 206 to 207 °C; `CCOC(=O)CCSc1nnsc1-c1ccc(C)cc1`: 68.5 to 69.5 °C. On to `CCCCOC1=C(c2ccccc2)C(CCC(=O)O)OC1=O` (stereo not given), for which the melting point lay within 94 to 96 °C. On to `COC(=O)CSc1ccc(N2CC(CNC(C)=O)OC2=O)cc1F` (stereo not given), for which the melting point was 119 to 120 °C. With `COC(=O)c1ccc2c(=O)c3ccccc3ccc2c1`, the melting point was in the range of 115 to 116 °C.

Turning to `Cn1cc(Br)nc(Nc2cnn(CCO[Si](C)(C)C(C)(C)C)c2)c1=O`, the melting point lay within 172 to 173 °C.
